Consider eleven compounds from patent publication US10556888B2, “Pyrazole compounds or salts thereof, preparation methods therefor, herbicidal compositions and use thereof” (QINGDAO KINGAGROOT CHEMICAL COMPOUNDS CO., LTD, priority 2015, dated 2020).

The structures appear in SMILES notation.

Data set [1] has as its system Monocotyledonous and dicotyledonous weed. Briefly: Post-emergence test experiment, weed control effect (Table 2). The format is in vivo. Details: key to weed control effect, Setaria viridis (level) / weed control effect, Rorippa indica (level) / weed control effect, Abutilon theophrasti (level) / weed control effect, Echinochloa crus-galli (level) / weed control effect, Digitaria sanguinalis (level): Level 10: completely dead; Level 9: above 90% growth inhibition rate; Level 8: above 80% growth inhibition rate; Level 7: above 70% growth inhibition rate; Level 6: above 60% growth inhibition rate; Level 5: above 50% growth inhibition rate; Level 4: above 30% growth inhibition rate; Level 3: above 20% growth inhibition rate; Level 2: above 10% growth inhibition rate; Level 1: above 1-10% growth inhibition rate; Level 0: no effect. The note with it: 3 weeks after spraying, greenhouse. Summed up:
(§1)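 Compounds, dissolved in acetone, mixed with Tween 80 and diluted in water, were sprayed post-emergence onto greenhouse-grown weeds and crops at the 2-3 leaf stage (2-3 weeks post-sowing). Plants then grown 3 more weeks in the greenhouse before evaluation.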

Data set [2] concerns main crop (wheat, corn, rice, soybean, cotton, oilseed, millet and sorghum). Briefly: Post-emergence test experiment, main crops (Table 2). The format is in vivo. As to conditions: 3 weeks after spraying, greenhouse. Details: key: Level 10: completely dead; Level 9: above 90% growth inhibition rate; Level 8: above 80% growth inhibition rate; Level 7: above 70% growth inhibition rate; Level 6: above 60% growth inhibition rate; Level 5: above 50% growth inhibition rate; Level 4: above 30% growth inhibition rate; Level 3: above 20% growth inhibition rate; Level 2: above 10% growth inhibition rate; Level 1: above 1-10% growth inhibition rate; Level 0: no effect. Summed up: as §1

On to `C#CCOCc1c(S(C)(=O)=O)ccc(C(=O)c2c(C)nn(C)c2OC(=O)c2cn(C)nc2C)c1Cl` [Compound 33], for which, in data set [1] (30 g/ha), the “weed control effect, Abutilon theophrasti (level)” value was 7 (Level 7: above 70% growth inhibition rate); the “weed control effect, Bidens pilosa (level)” value is reported as 7 (Level 7: above 70% growth inhibition rate); the “weed control effect, Digitaria sanguinalis (level)” value is 9 (Level 9: above 90% growth inhibition rate); the “weed control effect, Echinochloa crus-galli (level)” value is listed as 9 (Level 9: above 90% growth inhibition rate). Moreover, in data set [1] (30 g/ha), the “weed control effect, Rorippa indica (level)” value is 5 (Level 5: above 50% growth inhibition rate) and the “weed control effect, Setaria viridis (level)” value was 9 (Level 9: above 90% growth inhibition rate). Further, in data set [2] (30 g/ha), the “effect on crop, corn (level)” value is 1 (Level 1: above 1-10% growth inhibition rate); the “effect on crop, rice (level)” value is given as 5 (Level 5: above 50% growth inhibition rate); the “effect on crop, wheat (level)” value was determined as 0.

In the case of `CCCCOCc1c(S(C)(=O)=O)ccc(C(=O)c2c(C)nn(C)c2OC(=O)c2cn(C)nc2C)c1Cl` [Compound 34], in data set [1] (60 g/ha), the “weed control effect, Abutilon theophrasti (level)” value is given as 10; the “weed control effect, Bidens pilosa (level)” value is 8 (Level 8: above 80% growth inhibition rate); the “weed control effect, Digitaria sanguinalis (level)” value stood at 10; the “weed control effect, Echinochloa crus-galli (level)” value came to 10. Moreover, in data set [1] (60 g/ha), the “weed control effect, Rorippa indica (level)” value is listed as 10 and the “weed control effect, Setaria viridis (level)” value is reported as 8 (Level 8: above 80% growth inhibition rate). Moreover, in data set [2] (60 g/ha), the “effect on crop, corn (level)” value came out at 0; the “effect on crop, rice (level)” value is reported as 1 (Level 1: above 1-10% growth inhibition rate); the “effect on crop, wheat (level)” value was 0.

As for `Cc1nn(C)cc1C(=O)Oc1c(C(=O)c2ccc(S(C)(=O)=O)c(COCC(F)(F)C(F)F)c2Cl)c(C)nn1C` [Compound 35], in data set [1] (30 g/ha), the “weed control effect, Abutilon theophrasti (level)” value was 7 (Level 7: above 70% growth inhibition rate); the “weed control effect, Bidens pilosa (level)” value was 7 (Level 7: above 70% growth inhibition rate); the “weed control effect, Digitaria sanguinalis (level)” value was 7 (Level 7: above 70% growth inhibition rate); the “weed control effect, Echinochloa crus-galli (level)” value is reported as 10. In addition, in data set [1] (30 g/ha), the “weed control effect, Rorippa indica (level)” value was 5 (Level 5: above 50% growth inhibition rate) and the “weed control effect, Setaria viridis (level)” value was 6 (Level 6: above 60% growth inhibition rate). Moreover, in data set [2] (30 g/ha), the “effect on crop, corn (level)” value is on record as 1 (Level 1: above 1-10% growth inhibition rate); the “effect on crop, rice (level)” value is 5 (Level 5: above 50% growth inhibition rate); the “effect on crop, wheat (level)” value worked out at 0.

As for `COCCCOCc1c(S(C)(=O)=O)ccc(C(=O)c2c(C)nn(C)c2OC(=O)c2cn(C)nc2C)c1Cl` [Compound 37], in data set [1] (60 g/ha), the “weed control effect, Abutilon theophrasti (level)” value is on record as 10; the “weed control effect, Bidens pilosa (level)” value is 8 (Level 8: above 80% growth inhibition rate); the “weed control effect, Digitaria sanguinalis (level)” value is 10; the “weed control effect, Echinochloa crus-galli (level)” value is recorded as 9 (Level 9: above 90% growth inhibition rate). In data set [1] (60 g/ha), the “weed control effect, Rorippa indica (level)” value came to 10 and the “weed control effect, Setaria viridis (level)” value is 5 (Level 5: above 50% growth inhibition rate). Moreover, in data set [2] (60 g/ha), the “effect on crop, corn (level)” value is on record as 0; the “effect on crop, rice (level)” value is given as 1 (Level 1: above 1-10% growth inhibition rate); the “effect on crop, wheat (level)” value is listed as 0.

With `CC=CCOCc1c(S(C)(=O)=O)ccc(C(=O)c2c(C)nn(C)c2OC(=O)c2cn(C)nc2C)c1Cl` [Compound 38], in data set [1] (60 g/ha), the “weed control effect, Abutilon theophrasti (level)” value came to 10; the “weed control effect, Bidens pilosa (level)” value is 8 (Level 8: above 80% growth inhibition rate); the “weed control effect, Digitaria sanguinalis (level)” value was 8 (Level 8: above 80% growth inhibition rate); the “weed control effect, Echinochloa crus-galli (level)” value is 8 (Level 8: above 80% growth inhibition rate). For the same compound, in data set [1] (60 g/ha), the “weed control effect, Rorippa indica (level)” value stood at 10 and the “weed control effect, Setaria viridis (level)” value is 10. Besides, in data set [2] (60 g/ha), the “effect on crop, corn (level)” value worked out at 0; the “effect on crop, rice (level)” value is given as 1 (Level 1: above 1-10% growth inhibition rate); the “effect on crop, wheat (level)” value came to 0.

In the case of `CCOCCOCc1c(S(C)(=O)=O)ccc(C(=O)c2c(C)nn(C)c2OC(=O)c2cn(C)nc2C)c1Cl` [Compound 39], in data set [1] (60 g/ha), the “weed control effect, Abutilon theophrasti (level)” value stood at 10; the “weed control effect, Bidens pilosa (level)” value is 8 (Level 8: above 80% growth inhibition rate); the “weed control effect, Digitaria sanguinalis (level)” value was 9 (Level 9: above 90% growth inhibition rate); the “weed control effect, Echinochloa crus-galli (level)” value was 10. For the same compound, in data set [1] (60 g/ha), the “weed control effect, Rorippa indica (level)” value is 10 and the “weed control effect, Setaria viridis (level)” value is recorded as 10. In addition, in data set [2] (60 g/ha), the “effect on crop, corn (level)” value is listed as 0; the “effect on crop, rice (level)” value was 1 (Level 1: above 1-10% growth inhibition rate); the “effect on crop, wheat (level)” value is on record as 0.

On to `C#CCOCc1c(S(C)(=O)=O)ccc(C(=O)c2cnn(C)c2OC(=O)c2cn(C)nc2C)c1Cl` [Compound 41], for which, in data set [1] (30 g/ha), the “weed control effect, Abutilon theophrasti (level)” value is 7 (Level 7: above 70% growth inhibition rate); the “weed control effect, Bidens pilosa (level)” value is recorded as 7 (Level 7: above 70% growth inhibition rate); the “weed control effect, Digitaria sanguinalis (level)” value was 8 (Level 8: above 80% growth inhibition rate); the “weed control effect, Echinochloa crus-galli (level)” value was 10. In addition, in data set [1] (30 g/ha), the “weed control effect, Rorippa indica (level)” value was 10 and the “weed control effect, Setaria viridis (level)” value is 10. In data set [2] (30 g/ha), the “effect on crop, corn (level)” value was 0; the “effect on crop, rice (level)” value is 5 (Level 5: above 50% growth inhibition rate); the “effect on crop, wheat (level)” value was 0.

Turning to `CCOCc1c(S(C)(=O)=O)ccc(C(=O)c2cnn(C)c2OC(=O)c2cn(C)nc2C)c1Cl` [Compound 42], in data set [1] (30 g/ha), the “weed control effect, Abutilon theophrasti (level)” value is 7 (Level 7: above 70% growth inhibition rate); the “weed control effect, Bidens pilosa (level)” value is 7 (Level 7: above 70% growth inhibition rate); the “weed control effect, Digitaria sanguinalis (level)” value is reported as 7 (Level 7: above 70% growth inhibition rate); the “weed control effect, Echinochloa crus-galli (level)” value is 10. Moreover, in data set [1] (30 g/ha), the “weed control effect, Rorippa indica (level)” value was 10 and the “weed control effect, Setaria viridis (level)” value is 9 (Level 9: above 90% growth inhibition rate). In data set [2] (30 g/ha), the “effect on crop, corn (level)” value was 0; the “effect on crop, rice (level)” value is on record as 5 (Level 5: above 50% growth inhibition rate); the “effect on crop, wheat (level)” value is given as 0.

As to `CC=CCOCc1c(S(C)(=O)=O)ccc(C(=O)c2cnn(C)c2OC(=O)c2cn(C)nc2C)c1Cl` [Compound 43], in data set [1] (30 g/ha), the “weed control effect, Abutilon theophrasti (level)” value is given as 7 (Level 7: above 70% growth inhibition rate); the “weed control effect, Bidens pilosa (level)” value is reported as 7 (Level 7: above 70% growth inhibition rate); the “weed control effect, Digitaria sanguinalis (level)” value is listed as 7 (Level 7: above 70% growth inhibition rate); the “weed control effect, Echinochloa crus-galli (level)” value is 10. Further, in data set [1] (30 g/ha), the “weed control effect, Rorippa indica (level)” value was found to be 10 and the “weed control effect, Setaria viridis (level)” value was 9 (Level 9: above 90% growth inhibition rate). For the same compound, in data set [2] (30 g/ha), the “effect on crop, corn (level)” value is listed as 0; the “effect on crop, rice (level)” value was 3 (Level 3: above 20% growth inhibition rate); the “effect on crop, wheat (level)” value came out at 0.

For `Cc1nn(C)cc1C(=O)Oc1c(C(=O)c2ccc(S(C)(=O)=O)c(COCC(F)(F)F)c2Cl)cnn1C` [Compound 44], in data set [1] (30 g/ha), the “weed control effect, Abutilon theophrasti (level)” value is 7 (Level 7: above 70% growth inhibition rate); the “weed control effect, Bidens pilosa (level)” value is on record as 7 (Level 7: above 70% growth inhibition rate); the “weed control effect, Digitaria sanguinalis (level)” value is recorded as 10; the “weed control effect, Echinochloa crus-galli (level)” value is recorded as 10. For the same compound, in data set [1] (30 g/ha), the “weed control effect, Rorippa indica (level)” value was 10 and the “weed control effect, Setaria viridis (level)” value was 9 (Level 9: above 90% growth inhibition rate). In data set [2] (30 g/ha), the “effect on crop, corn (level)” value stood at 0; the “effect on crop, rice (level)” value was 3 (Level 3: above 20% growth inhibition rate); the “effect on crop, wheat (level)” value is reported as 0.

With `CCOCCOCc1c(S(C)(=O)=O)ccc(C(=O)c2cnn(C)c2OC(=O)c2cn(C)nc2C)c1Cl` [Compound 45], in data set [1] (30 g/ha), the “weed control effect, Abutilon theophrasti (level)” value is given as 7 (Level 7: above 70% growth inhibition rate); the “weed control effect, Bidens pilosa (level)” value is 7 (Level 7: above 70% growth inhibition rate); the “weed control effect, Digitaria sanguinalis (level)” value is 7 (Level 7: above 70% growth inhibition rate); the “weed control effect, Echinochloa crus-galli (level)” value is reported as 9 (Level 9: above 90% growth inhibition rate). Besides, in data set [1] (30 g/ha), the “weed control effect, Rorippa indica (level)” value was 10 and the “weed control effect, Setaria viridis (level)” value is on record as 7 (Level 7: above 70% growth inhibition rate). Further, in data set [2] (30 g/ha), the “effect on crop, corn (level)” value was 0; the “effect on crop, rice (level)” value is given as 3 (Level 3: above 20% growth inhibition rate); the “effect on crop, wheat (level)” value stood at 0.
